Data: patent publication US7371746B2, “1,2,4-Thiadiazole compounds and pests controlling composition containing the same” (Sumitomo Chemical Company Limited, priority 2003, dated 2008)

Test system: Aphis gossypii (cotton aphid)
Test: Test Example 1: spray test on cucumber plants infested with cotton aphid
Format: in vivo
Settings: 144 h, 500 ppm active ingredient, spray liquid 20 ml/cup on cucumber plant, sixth day after the application
Method: The formulation of each of the present compounds (3), (4), (5), (6), (7), (8), (9), (10), (11), (14), (15a), (15b), (16a), (17a), (17b), (18a), (18b), (19), (20), (21) and (22) according to Formulation Example 5 was diluted with water so that the active ingredient concentration came to 500 ppm to prepare a spray liquid. The seeds of cucumber were planted in a polyethylene cup and it was grown until the first true leaf was developed. On the plant about twenty Aphis gossypii (cotton aphid) are allowed to be parasitic. On the next day, the above spray liquid was applied at a ratio of 20 ml/cup to the cucumber plant. On the sixth day after the application, the number of Aphis gossypii was examined, and the control value was determined by the following formula: Control value (%)={1−(Cb×Tai)/(Cai×Tb)}×100 wherein the variables in the formula have the following meanings: Cb: the number of insects before the treatment in the non-treated area; Cai: the number of insects at the time of observation in the non-treated area; Tb: the number of insects before the treatment in the treated area; and Tai: the number of insects at the time of observation in the treated area.

Compound | pest or weed control at 500 ppm [%]
CC#CCOc1nsc(N2CCCC(C)C2)n1 (stereo not drawn) [present compound (7), 3-(2-butynyloxy)-5-(3-methylpiperidino)-1,2,4-thiadiazole] | ≥ 90
CCC#CCOc1nsc(N2CCCC(C)C2)n1 (stereo not drawn) [present compound (8), 3-(2-pentynyloxy)-5-(3-methylpiperidino)-1,2,4-thiadiazole] | ≥ 90
CCC#CCOc1nsc(N2CCCCC2)n1 [present compound (4), 3-(2-pentynyloxy)-5-piperidino-1,2,4-thiadiazole] | ≥ 90
CC#CCOc1nsc(N2CC(CC)CC(CC)C2)n1 (stereo not drawn) [present compound (19), 3-(2-butynyloxy)-5-(3,5-diethylpiperidino)-1,2,4-thiadiazole] | ≥ 90
CC#CCOc1nsc(N2CCCC(C(F)(F)F)C2)n1 (stereo not drawn) [present compound (22), 3-(2-butynyloxy)-5-(3-trifluoromethylpiperidino)-1,2,4-thiadiazole] | ≥ 90
CC#CCOc1nsc(N2CCOCC2)n1 [present compound (9), 3-(2-butynyloxy)-5-morpholino-1,2,4-thiadiazole] | ≥ 90
CC#CC(C)Oc1nsc(N2CC(C)CC(C)C2)n1 (stereo not drawn) [present compound (21), 3-(1-methyl-2-butynyloxy)-5-(3,5-dimethylpiperidino)-1,2,4-thiadiazole] | ≥ 90
CC#CCOc1nsc(N2CC(C)OC(C)C2)n1 (stereo not drawn) [present compound (17a), 3-(2-butynyloxy)-5-(2,6-dimethylmorpholino)-1,2,4-thiadiazole] | ≥ 90
CC#CCOc1nsc(N2CCC(C)CC2)n1 [present compound (11), 3-(2-butynyloxy)-5-(4-methylpiperidino)-1,2,4-thiadiazole] | ≥ 90
CC#CCOc1nsc(N2CC(C)CC(C)C2)n1 (stereo not drawn) [present compound (15a), 3-(2-butynyloxy)-5-(3,5-dimethylpiperidino)-1,2,4-thiadiazole] | ≥ 90
CCC#CCOc1nsc(N2CC(C)OC(C)C2)n1 (stereo not drawn) [present compound (18a), 3-(2-pentynyloxy)-5-(2,6-dimethylmorpholino)-1,2,4-thiadiazole] | ≥ 90
CC#CCOc1nsc(N2CCCCC2C)n1 (stereo not drawn) [present compound (5), 3-(2-butynyloxy)-5-(2-methylpiperidino)-1,2,4-thiadiazole] | ≥ 90
CCC#CCOc1nsc(N2CC(C)CC(C)C2)n1 (stereo not drawn) [present compound (16a), 3-(2-pentynyloxy)-5-(3,5-dimethylpiperidino)-1,2,4-thiadiazole] | ≥ 90
CCC#CCOc1nsc(N2CCCCCC2)n1 [present compound (14), 3-(2-pentynyloxy)-5-hexamethyleneimino-1,2,4-thiadiazole] | ≥ 90
CC#CCOc1nsc(N2CCCCC2)n1 [present compound (3), 3-(2-butynyloxy)-5-piperidino-1,2,4-thiadiazole] | ≥ 90
CCC#CCOc1nsc(N2CCCCC2C)n1 (stereo not drawn) [present compound (6), 3-(2-pentynyloxy)-5-(2-methylpiperidino)-1,2,4-thiadiazole] | ≥ 90
C#CCOc1nsc(N2CC(C)CC(C)C2)n1 (stereo not drawn) [present compound (20), 3-(2-propynyloxy)-5-(3,5-dimethylpiperidino)-1,2,4-thiadiazole] | ≥ 90
CCC#CCOc1nsc(N2CCOCC2)n1 [present compound (10), 3-(2-pentynyloxy)-5-morpholino-1,2,4-thiadiazole] | ≥ 90
